# Test results: article PMC10464297, “Reevaluation of bromodomain ligands targeting BAZ2A” (Protein Science : A Publication of the Protein Society, 2023)
# “Also recorded” adds a separate entry of the source.
# Columns and labels:
# BAZ2A bromodomain [1] = target: T1, BAZ2A bromodomain (Homo sapiens, UniProt Q9UIF9); test: AlphaScreen binding competition, BAZ2A bromodomain; settings: for % residual binding BAZ2A (100 μM): compound at 100 μM
# T1 construct: BAZ2A and BAZ2B bromodomains were produced; made in house
# T1 sequence (Q9UIF9 1793-1897 limits assumed): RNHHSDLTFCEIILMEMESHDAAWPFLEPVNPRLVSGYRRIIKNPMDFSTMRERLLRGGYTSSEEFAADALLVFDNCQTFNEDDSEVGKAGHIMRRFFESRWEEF
# Text: (§1) BAZ2A and BAZ2B bromodomains were produced and their activity evaluated by AlphaScreen as previously reported (Dalle Vedove et al., [2018]; Spiliotopoulos et al., [2017]). BAZ2A bromodomain was crystallized as detailed in an earlier work (Spiliotopoulos et al., [2017]). Diffraction data were collected at the Elettra Synchrotron Light Source (Trieste, Italy), XRD1 and XRD2 beamlines, and the European Synchrotron Radiation Facility (ESRF, Grenoble, France), ID30A‐1/MASSIF‐1 beamline. Data were processed and structures were solved as described elsewhere (Dalle Vedove et al., [2018]). Chemical synthesis of compounds UP39 and UZH23 has already been reported (Unzue et al., [2016]; Zhu et al., [2018]). A detailed description of cell culture methods and ITC protocol is provided in the Supporting Information.
# (§2) Figure S3. AlphaScreen competition binding assay for compounds UP39 and UZH23. The specific binding to the acetylated peptide relative to the control DMSO (y-axis) is plotted against the corresponding compound concentration in µM in log10 scale (x-axis).
# (§3) (1 picture or pasted object on this page, not shown here)
# BAZ2B bromodomain = target: T2, BAZ2B bromodomain (Homo sapiens, UniProt Q9UIF8); test: AlphaScreen binding competition, BAZ2B bromodomain; settings: for % residual binding BAZ2B (100 μM): compound at 100 μM
# T2 construct: BAZ2A and BAZ2B bromodomains were produced; made in house
# T2 sequence (Q9UIF8 2060-2164 limits assumed): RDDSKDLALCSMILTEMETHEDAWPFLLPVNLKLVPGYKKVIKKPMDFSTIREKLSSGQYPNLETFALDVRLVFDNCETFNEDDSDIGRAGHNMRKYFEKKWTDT
# Text: as §1, §2, §3
# BAZ2A bromodomain [2] = target: T1, BAZ2A bromodomain; test: Screening by co‐crystallization with BAZ2A bromodomain; type: binding
# Text: as §1
# [3] = tested on: first bromodomain of BRD4; design: method as in Hay et al., [2014]; Picaud et al., [2015]; settings: ref Hay et al., [2014]; Picaud et al., [2015]; cited from earlier work
# [4] = tested on: PC3 (AR‐negative) PCa cells; test: 2D proliferation assay (resazurin), PC3; type: cell-based
# Experimental: (§4) Cell cultures, proliferation assay and spheroid gro wth […]
# streptomycin and 2 m M L-glutamine. All cells were regularly tested for mycoplasma contamination.
# For the proliferation assay, cells were counted with a hemocytometer and seeded in triplicates in 96-well plates (4 .5x10^3 cells/well for 22Rv1 and 2.0x103 for PC3) and let adhere overnight at 37°C, […]
# (§5) transfected with siRNA for BAZ2A , RLUC or KIF11, as detailed below. The cells were incubated for 1, 3, 6 (PC3) and 9 days (22Rv1) and the medium containing either the carrier or the inhibitors was replaced every 3 day s. Cell proliferation and viability were determined at day 1, 3, 6 and 9 by adding 10% resazurin sodium salt solution (0. 03 mg/ml powder from Sigma -Aldrich) directly into each well and incubating them for 4h at 37°C, 5% CO 2. The absorbance at 570/600 nm was measured using a Varioskan plate reader. The reduction of the resazur in sodium salt was calculated using the formula: (Abs x – Abs 0. 1%DMSO day1)/(Abs 0. 1%DMSO day9 - Abs 0. 1%DMSO day1). The growth rate was analysed using the linear regression algorithm of GraphPad Prism. […]
# [5] = tested on: 22Rv1 (AR‐positive) PCa cells; test: 2D proliferation assay (resazurin), 22Rv1; type: cell-based
# Experimental: (§6) Cell cultures, proliferation assay and spheroid gro wth
# PC3 and 22Rv1 cells were cultured in RPMI 1640 medium containing 10% FBS, 1% penicillin-streptomycin and 2 m M L-glutamine. All cells were regularly tested for mycoplasma contamination.
# For the proliferation assay, cells were counted with a hemocytometer and seeded in triplicates in 96-well plates (4 .5x10^3 cells/well for 22Rv1 and 2.0x103 for PC3) and let adhere overnight at 37°C, 5% CO2. The following day, the medium was replaced with RPMI 1640 containing either the carrier […]
# as §5
# PC3 spheroids = test: Spheroid growth (3D), PC3; type: cell-based
# Experimental: as §4
# streptomycin and 2 m M L-glutamine. All cells were regularly tested for mycoplasma contamination. […]
# Spheroids were obtained by plating PC3 and 22Rv1 cells in low -adhesion round bottom 96 -well […]
# (§7) After seeding, the cells were centrifuged for 10 min at 1200 x g at 4°C. Spheroids were given 48 hours to form after seeding before adding the treatment or the carrier (0.1% DMSO). Medium supplemented with treatment/carrier was changed every 48 hours, for a total of 32 days for 22Rv1 and 16 days for PC3. Each spheroid was imaged in brightfield every day or every other day (after day 20), using a Leica DM IL microscope […]
# (§8) equipped with a Leica DFC450C digital camera. The area of each spheroid was measured using ImageJ and the average area for each condition was calculated. The growth rate was analysed using the segmental linear regression algorithm of GraphPad Prism. The appropriateness of the model was evaluated by considering the R square values and the Replicates test (Suppl. Table 6). […]
# 22Rv1 spheroids = test: Spheroid growth (3D), 22Rv1; type: cell-based
# Experimental: as §6
# PC3 and 22Rv1 cells were cultured in RPMI 1640 medium containing 10% FBS, 1% penicillin-streptomycin and 2 m M L-glutamine. All cells were regularly tested for mycoplasma contamination. […]
# as §7, with “Spheroids were obtained by plating PC3 and 22Rv1 cells in low -adhesion round bottom 96 -well plates. For 22Rv1, 2500 cells/well were seeded in 200 µl RPMI 1640; for PC3, 250 cells/well were seeded in 200 µl RPMI 1640 supplemented with 1.5% Matrigel. After” for “After”
# as §8
# [6] = 3D setting, GSK2801 25 μM, BAZ2‐ICR 25 μM, BI9564 20 μM
smiles,measurement,setting,value
COc1ccc(CCc2nc3cc(-c4c(C)noc4C)ccc3n2C[C@H](C)N2CCOCC2)cc1Cl [SGC‐CBP30],% residual binding BAZ2A (100 μM),BAZ2A bromodomain [1],95 ± 4%
same,% residual binding BAZ2B (100 μM),BAZ2B bromodomain,92 ± 6%
same,located in BAZ2A Kac pocket by co‐crystallization,BAZ2A bromodomain [2],inability to act as BAZ2A inhibitors
same,off‐target activity on the first bromodomain of BRD4,[3],weak off‐target activity
COc1cc(-c2cn(C)c(=O)c3cnccc23)c(OC)cc1CN(C)C [BI9564],effect on 2D growth of PC3 cells,"[4]; 2D‐cell culture, PC3",completely inactive on PC3 cells
same,"Slope (best-fit, linear regression of growth curve)","[4]; PC3, 0.1 µM","0,1514"
same,"Slope (best-fit, linear regression of growth curve)","[4]; PC3, 0.25 µM","0,1530"
same,"Slope (best-fit, linear regression of growth curve)","[4]; PC3, 0.5 µM","0,1594"
same,"Slope (best-fit, linear regression of growth curve)","[4]; PC3, 1 µM","0,1557"
same,"Slope (best-fit, linear regression of growth curve)","[4]; PC3, 2.5 µM","0,1485"
same,"Slope (best-fit, linear regression of growth curve)","[4]; PC3, 5 µM","0,1453"
same,"Slope (best-fit, linear regression of growth curve)","[4]; PC3, 10 µM","0,1454"
same,"Slope (best-fit, linear regression of growth curve)","[4]; PC3, 20 µM","0,1470"
same,effect on 2D growth of 22Rv1 cells,"[5]; 2D‐cell culture, 22Rv1",only moderately affected 22Rv1 cell growth; also recorded: limited activity only on 22Rv1 cells
same,"Slope (best-fit, linear regression of growth curve)","[5]; 22Rv1, 0.1 µM","0,1043"
same,"Slope (best-fit, linear regression of growth curve)","[5]; 22Rv1, 0.25 µM","0,1062"
same,"Slope (best-fit, linear regression of growth curve)","[5]; 22Rv1, 0.5 µM","0,1057"
same,"Slope (best-fit, linear regression of growth curve)","[5]; 22Rv1, 1 µM","0,1046"
same,"Slope (best-fit, linear regression of growth curve)","[5]; 22Rv1, 2.5 µM","0,09943"
same,"Slope (best-fit, linear regression of growth curve)","[5]; 22Rv1, 5 µM","0,09452"
same,"Slope (best-fit, linear regression of growth curve)","[5]; 22Rv1, 10 µM","0,08987"
same,"Slope (best-fit, linear regression of growth curve)","[5]; 22Rv1, 20 µM","0,08043"
same,effect on growth of PC3 spheroids,PC3 spheroids; [6],less effective on PC3
same,slope2 (segmental linear regression of spheroid growth),"PC3 spheroids; PC3 spheroids, 20 µM, after X0 = day 6",69835
same,slope1 (segmental linear regression of spheroid growth),"PC3 spheroids; PC3 spheroids, 20 µM, before X0 = day 6",28821
same,effect on growth of 22Rv1 spheroids,22Rv1 spheroids; [6],reduced the growth of 22Rv1 spheroids
same,slope2 (segmental linear regression of spheroid growth),"22Rv1 spheroids; 22Rv1 spheroids, 20 µM, after X0 = day 9",6998
same,slope1 (segmental linear regression of spheroid growth),"22Rv1 spheroids; 22Rv1 spheroids, 20 µM, before X0 = day 9",12255
CC(=O)n1cc(-c2c(C)nn3c2OCC3)c2ccccc21 [UZH23],IC50,BAZ2A bromodomain [1]; AlphaScreen,86 ± 9 µM
same,% residual binding BAZ2A (100 μM),BAZ2A bromodomain [1],52 ± 9%
same,IC50,BAZ2B bromodomain; AlphaScreen,> 100 µM
same,% residual binding BAZ2B (100 μM),BAZ2B bromodomain,62 ± 7%
